The source of these data is ChEMBL document CHEMBL1201862, “PubChem BioAssay data set” (2004).

Among the test systems are A549; DMS-273; HCT-15; HOP-62; MDA-MB-231; MDA-N; Malme-3M; NCI-H226; NCI-H460; NCI-H522; OVCAR-5; OVCAR-8; SF-295; SNB-75; SW-620; UACC-62; UO-31; 786-0; SNB-19; SR.
Assay in all cases: inhibition of tumour cell growth, NCI panel, 48 h

The structures appear in SMILES notation.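 Exposure lasted 48 hours, with cells grown in 96-well plates and compounds tested at five concentrations. GI50: concentration for 50% inhibition of growth.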 Calls of active or inactive are those of the source. No stated cut-off is given here; in the data, active = GI50 up to about 1.1 µM and inactive = higher.

Take `COc1cc([C@@H]2c3cc4c(cc3[C@@H](OC3OC5COC(C)OC5C(O)C3O)[C@H]3COC(=O)[C@H]23)OCO4)cc(OC)c1O` (stereo partly drawn): the GI50 with A549 is 3.61 µM (inactive); in the assay with DMS-273 it was 1.97 µM (inactive); in the assay with HCT-15 it was 17.6 µM; with HOP-62, 1.97 µM (inactive); in the assay with MDA-MB-231, 1.7 µM (inactive); with MDA-N, 0.968 µM (active). For the same compound, the GI50 with Malme-3M was 9.44 µM (inactive); in the assay on NCI-H226 it was 3.44 µM (inactive); in the assay with NCI-H460, 0.533 µM (active); in the assay with NCI-H522 it was 6.03 µM (inactive); in the assay on OVCAR-5, 25.2 µM (inactive); in the assay on OVCAR-8, 11.3 µM (inactive). In addition, the GI50 in the assay with SF-295 was 5.92 µM (inactive); in the assay on SNB-75, 12.1 µM (inactive); with SW-620, 6.71 µM (inactive); with UACC-62 it was 6.11 µM (inactive); with UO-31, 42.3 µM (inactive).

Take `CCCCCCCCCCCCCCCC(=O)OCC(C[As](=O)(O)O)OC(=O)CCCCCCCCCCCCCCC` (stereo not drawn): the GI50 is > 84.5 µM (inactive) in the assay on 786-0; > 100 µM (inactive) in the assay with A549; > 100 µM (inactive) with DMS-273; over 66.5 µM in the assay on HCT-15; > 70.3 µM (inactive) in the assay with HOP-62; > 100 µM (inactive) in the assay with MDA-MB-231. The GI50 with MDA-N was > 100 µM (inactive); in the assay on Malme-3M, > 74.8 µM (inactive); with NCI-H226, > 74.8 µM (inactive); with NCI-H460 it was > 100 µM (inactive); with NCI-H522, > 100 µM (inactive); in the assay with OVCAR-5 it was > 100 µM (inactive). For the same compound, the GI50 is > 100 µM (inactive) with OVCAR-8; > 82.6 µM (inactive) in the assay on SF-295; > 56.8 µM (inactive) in the assay on SNB-19; 33 µM (inactive) with SNB-75; > 100 µM (inactive) in the assay with SR; > 50.9 µM (inactive) in the assay on SW-620. Further, the GI50 with UACC-62 and in the assay on UO-31 was > 100 µM (inactive) each time.

For the compound `CN(C(=O)C12C3(C(=O)C(C)(C)C)C4C5(C#N)C3C1(C(=O)C(C)(C)C)C5C42C(=O)C(C)(C)C)C(C)(C)C` (stereo not drawn), the GI50 is > 50 µM (inactive) in the assay on 786-0; > 50 µM (inactive) in the assay with A549; 42.8 µM (inactive) in the assay with DMS-273; over 50 µM with HCT-15; > 50 µM (inactive) with HOP-62; > 50 µM (inactive) with Malme-3M. The GI50 in the assay on NCI-H226 was > 50 µM (inactive); with NCI-H460, > 50 µM (inactive); with NCI-H522 it was 14.5 µM (inactive); in the assay on OVCAR-5 it was > 50 µM (inactive); in the assay with OVCAR-8, > 50 µM (inactive); in the assay with SF-295, > 50 µM (inactive). Further, the GI50 is > 50 µM (inactive) in the assay with SNB-19; 8.95 µM (inactive) in the assay with SNB-75; 43.8 µM (inactive) with SR; > 50 µM (inactive) in the assay with SW-620; 48.8 µM (inactive) with UACC-62; 29.6 µM (inactive) in the assay with UO-31.

With `c1cc(-c2cn3c(n2)SCC3)ccn1`, the GI50 in the assay on 786-0 was 20.5 µM (inactive); with A549, > 100 µM (inactive); in the assay with DMS-273, 28.3 µM (inactive); in the assay on HCT-15, over 43.2 µM; in the assay on HOP-62, > 100 µM (inactive); in the assay on Malme-3M, > 100 µM (inactive). Also, the GI50 with NCI-H226 was > 100 µM (inactive); with NCI-H460 it was > 55.3 µM (inactive); in the assay on NCI-H522, > 100 µM (inactive); in the assay with OVCAR-5 it was > 100 µM (inactive); with OVCAR-8, > 100 µM (inactive); in the assay with SF-295 it was > 100 µM (inactive). Moreover, the GI50 in the assay with SNB-19 was > 100 µM (inactive); in the assay with SNB-75 it was > 100 µM (inactive); with SR, > 100 µM (inactive); with SW-620, > 25.2 µM (inactive); in the assay on UACC-62 it was > 100 µM (inactive); in the assay with UO-31 it was > 100 µM (inactive).
